{"source": "patent US20230090293A1", "about": "“ANTIBIOTICS” (ASTON UNIVERSITY, priority 2020, published 2023)", "key": {"[1]": {"system": "HCT116 (colorectal cancer cell line)", "experiment": "In vitro chemosensitivity (MTT) assay, HCT116", "format": "cell-based, human", "settings": "24 h exposure, 72 h recovery, mean ± SD", "experimental": "(§1) In vitro chemosensitivity tests were performed against HCT116 (colorectal cancer cell line), A2780 and A2780cisR (cisplatin sensitive and cisplatin resistant ovarian cancer cell lines, respectively). Cancer cell lines were routinely maintained as monolayer cultures in RPMI medium supplemented with 10% foetal calf serum, penicillin (100 I.U./ml) and streptomycin (100 μg/ml), sodium pyruvate (1 mM) and L-glutamine (2 mM). For chemosensitivity studies, cells were incubated in 96-well plates at a concentration of 7.5×10^3 cells per well and the plates were incubated for 24 hours at 37° C. and a 5% CO2 humidified atmosphere prior to drug exposure.\n(§2) Complexes were dissolved in dimethylsulfoxide (DMSO) to provide stock solutions which were further diluted with media to provide a range of final concentrations. Drug-media solutions were added to cells (the final concentration of DMSO was less than 0.5% (v/v) in all cases) and incubated for 24 hours at 37° C. and 5% CO2 humidified atmosphere. […] A Thermo Scientific Multiskan EX microplate photometer was used to measure the absorbance in each well at 570 nm. Cell survival was determined as the absorbance of treated cells divided by the absorbance of controls and expressed as a percentage. The IC50 values were determined from plots of % survival against drug concentration. […]"}, "[2]": {"system": "A2780cisR (cisplatin resistant ovarian cancer cell line)", "experiment": "In vitro chemosensitivity (MTT) assay, A2780cisR", "format": "cell-based, human", "settings": "24 h exposure, 72 h recovery, mean ± SD", "experimental": "as §1, §2"}}, "data": [{"smiles": "N.N.[Cl][Pt][Cl]", "note": "[cisplatin]", "values": [{"measurement": "IC50", "setting": "[1]", "value": "59.8 ± 7.5", "unit": "µM"}, {"measurement": "IC50", "setting": "[2]", "value": "11.9 ± 2.2", "unit": "µM"}]}]}
